system: not given; experiment: not given; conditions: cited from earlier work

Row | Structure (SMILES) | effect of inhaled LTC4
1 | CCCCC/C=C\C\C=C/C=C/C=C/[C@@H](SC[C@H](NC(=O)CC[C@H](N)C(=O)O)C(=O)NCC(=O)O)[C@@H](O)CCCC(=O)O [LTC4] | causes the immediate development of symptoms resembling those of an asthmatic attack

molecular target: T1, RBL-1 5-Lipoxygenase (Rattus norvegicus, UniProt P12527); experiment: RBL-1 5-lipoxygenase assay (10,000×g supernatant from homogenized RBL-1 cells, [14C] arachidonic acid); assay type: biochemical; conditions: pH 7.0, 37° C., 5 min preincubation, 0.042 mM arachidonic acid; linear regression on three concentrations
T1 construct: supernatant from homogenized RBL-1 cells; endogenous in cells; host or cells: RBL-1 cells (10,000×g supernatant of homogenate)
T1 sequence (P12527 1-673): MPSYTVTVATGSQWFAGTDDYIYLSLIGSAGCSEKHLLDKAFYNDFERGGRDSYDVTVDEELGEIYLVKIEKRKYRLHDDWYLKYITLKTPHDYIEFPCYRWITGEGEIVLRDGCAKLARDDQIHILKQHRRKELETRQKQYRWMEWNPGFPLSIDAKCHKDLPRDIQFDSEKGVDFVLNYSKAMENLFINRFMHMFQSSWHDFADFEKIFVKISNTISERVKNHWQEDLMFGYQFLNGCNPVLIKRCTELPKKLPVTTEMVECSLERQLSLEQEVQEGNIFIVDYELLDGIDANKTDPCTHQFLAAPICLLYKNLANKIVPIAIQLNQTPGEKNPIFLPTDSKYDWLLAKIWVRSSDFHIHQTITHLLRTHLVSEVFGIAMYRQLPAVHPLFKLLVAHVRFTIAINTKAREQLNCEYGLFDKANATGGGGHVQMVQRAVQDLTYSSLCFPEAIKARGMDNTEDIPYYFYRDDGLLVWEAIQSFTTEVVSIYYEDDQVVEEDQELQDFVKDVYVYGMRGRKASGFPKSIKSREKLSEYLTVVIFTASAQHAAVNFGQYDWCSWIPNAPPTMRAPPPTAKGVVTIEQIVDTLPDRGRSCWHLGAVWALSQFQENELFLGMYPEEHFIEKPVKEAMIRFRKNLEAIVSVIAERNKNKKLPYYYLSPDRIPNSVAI
Description: The potencies of the compounds as 5-lipoxygenase inhibitors were determined using a RBL-1 5-lipoxygenase assay. The procedure of Jakschik et al. was used (Jakschik, B. A.; Lee, L. H.; Shuffer, G.; Parker, C. W., Prostaglandins, 1978, 16, 733; Jakschik, B. A.; Sun, F. F.; Lee, L. H.; Steinhoff, M. M. Biochem. Biophys. Res. Commun., 1980, 95, 100; […]., Biochem. Biophys. Res. Commun., 1981, 102, 624). The enzyme was prepared as a 10,000×gsupernatant from homogenized RBL-1 cells. Because of variability in the enzyme content from culture to culture, an amount of supernatant was chosen to give a net production of 3300-3800 dpm of 5-HETE under the assay conditions (total cell protein 9-20 μg/assay). All reactions were run in duplicate. In a total volume of 100 μL, the appropriate amount of enzyme was incubated with test compound (prepared in 5% DMSO, 95% 0.2 M Tris, pH 8.5) in a phosphate buffer (45 mM sodium phosphate, 0.83 mM EDTA, 0.083% gelatin, 0.1 mM glutathione, 0.83 mM calcium chloride, 0.012 mM indomethacin) at pH 7.0 and 37° C. for 5 min. The reaction was initiated by the addition of 20 μL of a solution of arachidonic acid in phosphate buffer. […] Remaining products were eluted with methanol/water/acetic acid (70:30:1). Activity was measured as the total radioactivity in the 5-LO products, and inhibition was calculated at (1-D/C)×100%, where D is the activity in the presence of the test compound and C is the control activity.

Row | IC50 | Structure (SMILES)
2 | 1600 nM | CN(O)C=CC(=O)c1ccc(OCc2ccccc2)cc1 [Example 1a, 1-(4-(Benzyloxy)phenyl)-3-(N-hydoxy-N-methyl)aminoprop-2-en-1-one]
3 | 2200 nM | CC(c1ccc2ccccc2c1)N(O)C=CC(=O)c1ccc2ccccc2c1 (stereo not drawn) [Example 1b]
4 | 2500 nM | O=C(C=CN(O)C1CCCCC1)c1ccc2ccccc2c1 [Example 1c]
5 | 3100 nM | O=C(C=CN(O)Cc1ccc(OCc2ccccc2)cc1)C1CC1 [Example 1e]
6 | 440 nM | CN(O)C=CC(=O)c1cc2ccccc2s1 [Example 1i]
7 | 1500 nM | O=C(C=CN(O)Cc1ccc2ccccc2c1)C1CC1 [Example 1j]
8 | 2300 nM | O=C(C=CN(O)Cc1ccccc1)c1ccc2ccccc2c1 [Example 2a, 1-(2-naphthyl)-3-(N-hydoxy-N-benzyl) aminoprop-2-en-1-one]
9 | 1100 nM | O=C(C=CN(O)c1ccccc1)c1ccc2ccccc2c1 [Example 2b]
10 | 250 nM | O=C(C=CN(O)Cc1ccccc1)c1ccc(Cl)cc1 [Example 2e]
11 | 7700 nM | CC(=O)C=CN(O)Cc1ccc(OCc2ccccc2)cc1 [Example 3a]

system: inflammatory cells such as polymorphonuclear leukocytes; experiment: not given; conditions: cited from earlier work

Row | Structure (SMILES) | chemotactic activity for inflammatory cells
12 | CCCCC/C=C\C[C@@H](O)/C=C/C=C/C=C\[C@@H](O)CCCC(=O)O [LTB4] | potent chemotactic factors

system: not given; experiment: not given; conditions: times the activity of histamine; cited from earlier work

Row | Structure (SMILES) | spasmogen activity relative to histamine
13 | CCCCC/C=C\C\C=C/C=C/C=C/[C@@H](SC[C@H](NC(=O)CC[C@H](N)C(=O)O)C(=O)NCC(=O)O)[C@@H](O)CCCC(=O)O [LTC4] | 1000 times
14 | CCCCC/C=C\C\C=C/C=C/C=C/[C@@H](SC[C@H](N)C(=O)NCC(=O)O)[C@@H](O)CCCC(=O)O [LTD4] | 1000 times
15 | CCCCC/C=C\C\C=C/C=C/C=C/[C@@H](SC[C@H](N)C(=O)O)[C@@H](O)CCCC(=O)O [LTE4] | 1000 times
